Results as given in patent US4230719A, “Novel 2-[4-(3-methyl-2-thienyl)phenyl]propionic acid and pharmaceutically acceptable salt thereof and method for treating symptoms of inflammation and pain” (Toyama Chemical Co., Ltd., priority 1977, dated 1980).
Where two headings read alike, the source gives them in different places.

Experiments:
[1] = tested on: pain threshold (brewer's yeast, hind paw); assay: Analgesic activity, Randall-Selitto method in rat; format: in vivo, rat (Wistar strain, male); details: for Inhibition: 100% = pain threshold raised by 150 g; for ED50: po, rat, read-out: ED50
Method: (ii) Randall-Selitto method in rat
After one hour, the test compound was orally administered. One hour thereafter, the pain threshold value was measured four times at a time interval of one hour. The mean value of four values obtained was taken as the pain threshold value of each group of rats. The activity of the drug was assumed to be 100% when the pain threshold value was raised by 150 g.

[2] = tested on: threshold value of pain due to pressure stimuli (tail); details: for Analgesic effect: 100% = threshold raised by 160 g; for ED50: Mus musculus, po
[3] = tested on: Carrageenin-induced edema; assay: Carrageenin-induced edema; format: in vivo, rat (Donryu strain, male); details: Rattus norvegicus, po, mean in 5 hours, read-out: Inhibitory percent of swelling; for inhibition in vivo at 1 mg/kg: 1 mg/kg p.o.; for inhibition in vivo at 5 mg/kg: 5 mg/kg p.o.
Method: (iii) Carrageenin-induced edema
Each of the 6 Donryu strain male rats per group (each weighing about 140 g), which had been fasted overnight, was orally loaded with 4 ml of water and, after 30 minutes, the test compound was orally administered thereto. Thirty minutes thereafter, a 1%(Wt/V) solution of carrageenin in physiological saline was subcutaneously injected into the subplantar region of the left hind paw. At a time interval of one hour, starting from the end of the first hour till the end of the fifth hour after injection of carrageenin, the paw volume was measured by means of a manometer and pressure transducer. By comparison with the percent increase in swelling of the control group of rats to which a 0.5%(V/V) solution of Tween 80 had been administered, the mean inhibitory percent in 5 hours of swelling was calculated by the following equation: [formula]

[4] = tested on: Phenol Red (PSP) excretion; assay: Uricosuric action (a), inhibition of Phenol Red (PSP) excretion; format: in vivo, rabbit (male)
Method: (a) The action was examined by the method of B. B. Brodie et al. who reported that the inhibitory action on Phenol Red (PSP) excretion correlates with the uricosuric action [Proc. Soc. Exp. Biol. Med., 86, 884 (1954)]. To a male rabbit weighing 2 to 3 kg was intraperitoneally administered the test compound. After 30 minutes, 75 mg/kg of a Phenol Red suspension was injected into the pinna vein of the rabbit and 30 minutes thereafter a blood sample was drawn from the pinna vein. The blood sample was centrifuged and the serum was diluted with physiological saline. The diluted serum was treated with 0.1 N NaOH to develop the color. The concentration of Phenol Red in the serum was determined from the absorbance at 560 mμ.

[5] = tested on: Vascular permeability; assay: Vascular permeability in rat (Whittle's method); format: in vivo, rat (Wistar strain, male); details: for ED30: po, rat, read-out: ED30
Method: (ii) Vascular permeability in rat (Whittle's method)
The test compound was orally administered to each Wistar strain male rat (weighing about 150 g) which had been fasted overnight. After 55 minutes, 0.5 ml of a 0.5% Evans Blue solution was intravenously injected. Five minutes thereafter, 0.2 ml/100 g of a 3%(V/V) acetic acid solution was intraperitoneally injected. After 60 minutes from the injection of the acetic acid solution, the rats were killed by suffocation with chloroform. After immediate laparotomy, the dye leaked into the peritoneal cavity was washed out with physiological saline. The washings were made up with the saline to 30 ml and the absorbance at 640 mμ was measured to examine the effect of the test compounds by comparing the amounts of leaked dye per rat with one another.

[6] = tested on: Adjuvant arthritis; assay: Adjuvant arthritis; format: in vivo, rat (Sprague-Dawley strain, male); details: 1 mg/kg p.o./day, mean during one week
Method: A suspension containing 6 mg/ml of killed and dried Mycobacterium butyricum in liquid paraffin was subcutaneously injected into the subplantar region of the left hind paw of Sprague-Dawley strain male rats (weighing 180 to 200 g) in a proportion of 0.1 ml/rat. After 14 days, the rats having inflammatory paws of similar volumes were selected and the test compound was orally administered to the rats repeatedly at the rate shown in Table 4 during one week and the mean inhibitory percent of swelling during one week was determined.

[7] = in vivo; details: rat, po
[8] = tested on: phenylbenzoquinone writhing; assay: Analgesic activity, phenylbenzoquinone method in mouse; format: in vivo, mouse (ddY strain, male); details: for Frequency of writhing, mean ± S.E.: during 10 minutes; for inhibition in vivo at 5 mg/kg / inhibition in vivo at 10 mg/kg / inhibition in vivo at 20 mg/kg: Mus musculus, 10 min, writhing, read-out: Inhibition; for inhibition in vivo at 5 mg/kg / inhibition in vivo at 10 mg/kg / inhibition in vivo at 20 mg/kg / ED50: po; for ED50: mouse, read-out: ED50
Method: (i) Phenylbenzoquinone method in mouse
The test compound was orally administered to each ddY strain male mouse (weighing 22±2 g; 8 mice per group). […] The frequency of writhing during 10 minutes from 5-minutes after the injection of phenylbenzoquinone was measured and compared with that of a control group to which a 0.5% Tween 80 solution was administered. The percent inhibition was calculated by the following equation: [formula]

[9] = tested on: fever (Mycobacterium butyricum); assay: Antipyretic action; format: in vivo, rat (Wistar strain, female); details: for ED1.0: po, rat, read-out: ED1.0
Method: A suspension (0.6 mg/0.1 ml) of killed and dried Mycobacterium butyricum in liquid paraffin was subcutaneously injected in an amount of 0.1 ml into the subplantar region of the hind paw of each Wistar strain female rat weighing about 180 g. After 14 hours, the fevered rats were divided into groups, and each test compound was orally administered to each group to examine the antipyretic effect.

[10] = tested on: Vascular permeability; assay: Vascular permeability in mice (Whittle's method); format: in vivo, mouse (ddY strain, male); details: for Inhibition: dye leakage; for ED30: po, mouse, read-out: ED30
Method: (i) Vascular permeability in mice (Whittle's method)
The test compound was orally administered to each ddY strain male mouse (weighing each about 20 g). After 20 minutes, 0.1 ml/10 g of a 4%(Wt/V) solution of Pontamine Sky Blue in physiological saline was intravenously injected and 10 minutes thereafter 0.1 ml/10 g of a 0.7%(V/V) solution of acetic acid in physiological saline was injected intraperitoneally. After 30 minutes, the mice were killed by suffocation with chloroform. After immediate laparotomy, the dye leaked into the peritoneal cavity was washed out with distilled water. The washings were made up with water to 30 ml and the absorbance at 620 mμ was measured. The amount of leaked dye per 20 g of mouse weight was compared.

[11] = tested on: Glomerulonephritis; assay: Action on glomerulonephritis in rats; format: in vivo, rat (Wistar strain, male); details: 10 mg/kg p.o./day
Text: (ii) Action on glomerulonephritis in rats
Glomerulonephritis was induced in Wistar strain male rats (each weighing 180 to 200 g) by use of an anti-rat's kidney rabbit serum obtained from the serum of a rabbit sensitized with a homogenate of rat's kidney cortice. To the rat producing stable proteinuria was orally administered the test compound repeatedly at the rate shown in Table 12 for 2 weeks, and the inhibition of uric protein was examined.

Compound `Cc1ccsc1-c1ccc(C(C)C(=O)O)cc1` (single isomer, unassigned; isomer d) [d-Isomer, d-2-[4-(3-methyl-2-thienyl)phenyl]propionic acid] has an Inhibition ([1]; 1 mg/kg p.o.) of 37.1%, an Inhibition ([1]; 5 mg/kg p.o.) of 48.5% and an Inhibition ([1]; 25 mg/kg p.o.) of 72.9%. It also gave an ED50 [1] of 4.4 mg/kg, an Analgesic effect ([2]; 2.5 mg/kg p.o.) of 38% and an Analgesic effect ([2]; 10 mg/kg p.o.) of 61%. The Analgesic effect ([2]; 40 mg/kg p.o.) was 80%, the ED50 [2] was 5.2 mg/kg and the inhibition in vivo at 1 mg/kg [3] was 40%. For the same compound, the inhibition in vivo at 5 mg/kg [3] was 57.2%, the “Concentration of PSP in serum, mean ± S.E.” value (from here on “Concentration of PSP in serum”) ([4]; 10 mg/kg i.p.) was 223.8 ± 3.9 µg/mL and the “Concentration of PSP in serum” value ([4]; 20 mg/kg i.p.) was 267.3 ± 18.0 µg/mL. The Inhibition ([5]; 0.2 mg/kg p.o.) was 14.2%, the Inhibition ([5]; 0.5 mg/kg p.o.) was 28.1% and the Inhibition ([5]; 1 mg/kg p.o.) was 43.3%. For the same compound, the ED30 [5] was 0.52 mg/kg, the “Inhibitory percent of swelling” value [6] was 21.6% and the LD50 [7] was 230 mg/kg. The “Frequency of writhing, mean ± S.E.” value ([8]; 5 mg/kg p.o.) was 14.5 ± 3.5, the “Frequency of writhing, mean ± S.E.” value ([8]; 10 mg/kg p.o.) was 9.9 ± 2.6 and the “Frequency of writhing, mean ± S.E.” value ([8]; 20 mg/kg p.o.) was 5.4 ± 1.0. The inhibition in vivo at 5 mg/kg ([8]; 5 mg/kg p.o.) was 38.6%, the inhibition in vivo at 10 mg/kg ([8]; 10 mg/kg p.o.) was 58.1% and the inhibition in vivo at 20 mg/kg ([8]; 20 mg/kg p.o.) was 77.1%. For the same compound, the ED50 [8] was 7.5 mg/kg, the “Mean decrease in temp.” value ([9]; 0.2 mg/kg p.o.) was 0.82 °C and the “Mean decrease in temp.” value ([9]; 1 mg/kg p.o.) was 1.18 °C. For the same compound, the “Mean decrease in temp.” value ([9]; 5 mg/kg p.o.) was 1.63 °C, the ED1.0 [9] was 0.44 mg/kg and the “Dye leakage (P.S.B.) mean ± S.E.” value ([10]; 5 mg/kg p.o.) was 256.4 ± 15.9 μg/20g. The “Dye leakage (P.S.B.) mean ± S.E.” value ([10]; 10 mg/kg p.o.) was 218.0 ± 14.3 μg/20g, the “Dye leakage (P.S.B.) mean ± S.E.” value ([10]; 20 mg/kg p.o.) was 160.4 ± 10.3 μg/20g and the Inhibition ([10]; 5 mg/kg p.o.) was 20.1%. It also gave an Inhibition ([10]; 10 mg/kg p.o.) of 32.0%, an Inhibition ([10]; 20 mg/kg p.o.) of 50.0% and an ED30 [10] of 8.6 mg/kg.

With `CC(=O)OCC(=O)[C@@]1(O)CC[C@H]2[C@@H]3CCC4=CC(=O)CC[C@]4(C)[C@H]3[C@@H](O)C[C@@]21C` [Hydrocortisone acetate] the “Inhibition of uric protein” value ([11]; 7th day) was 20.0% and the “Inhibition of uric protein” value ([11]; 14th day) was 29.0%.

Compound `Cc1ccsc1-c1ccc(C(C)C(=O)O)cc1` (racemic) [Racemic compound, dl-2-[4-(3-methyl-2-thienyl)phenyl]propionic acid] has an Inhibition ([1]; 1 mg/kg p.o.) of 44.3%, an Inhibition ([1]; 5 mg/kg p.o.) of 45.2% and an Inhibition ([1]; 25 mg/kg p.o.) of 66.9%. For the same compound, the ED50 [1] was 6.1 mg/kg, the Analgesic effect ([2]; 2.5 mg/kg p.o.) was 33% and the Analgesic effect ([2]; 10 mg/kg p.o.) was 50%. It also gave an Analgesic effect ([2]; 40 mg/kg p.o.) of 85%, an ED50 [2] of 7 mg/kg and an inhibition in vivo at 1 mg/kg [3] of 21.2%. The inhibition in vivo at 5 mg/kg [3] was 48.5%, the “Concentration of PSP in serum” value ([4]; 10 mg/kg i.p.) was 166.7 ± 25.1 µg/mL and the “Concentration of PSP in serum” value ([4]; 20 mg/kg i.p.) was 249.3 ± 41.4 µg/mL. The Inhibition ([5]; 0.5 mg/kg p.o.) was 20.1%, the Inhibition ([5]; 1 mg/kg p.o.) was 27.6% and the Inhibition ([5]; 5 mg/kg p.o.) was 50.1%. The ED30 [5] was 1.1 mg/kg, the “Inhibitory percent of swelling” value [6] was 14.4% and the LD50 [7] was 248 mg/kg. For the same compound, the “Frequency of writhing, mean ± S.E.” value ([8]; 5 mg/kg p.o.) was 18.6 ± 4.5, the “Frequency of writhing, mean ± S.E.” value ([8]; 10 mg/kg p.o.) was 11.8 ± 2.4 and the “Frequency of writhing, mean ± S.E.” value ([8]; 20 mg/kg p.o.) was 3.3 ± 0.9. For the same compound, the inhibition in vivo at 5 mg/kg ([8]; 5 mg/kg p.o.) was 21.2%, the inhibition in vivo at 10 mg/kg ([8]; 10 mg/kg p.o.) was 50% and the inhibition in vivo at 20 mg/kg ([8]; 20 mg/kg p.o.) was 86%. The ED50 [8] was 9.7 mg/kg, the “Mean decrease in temp.” value ([9]; 0.2 mg/kg p.o.) was 0.52 °C and the “Mean decrease in temp.” value ([9]; 1 mg/kg p.o.) was 1.20 °C. For the same compound, the “Mean decrease in temp.” value ([9]; 5 mg/kg p.o.) was 1.70 °C, the ED1.0 [9] was 0.66 mg/kg and the “Dye leakage (P.S.B.) mean ± S.E.” value ([10]; 5 mg/kg p.o.) was 262.0 ± 21.1 μg/20g. The “Dye leakage (P.S.B.) mean ± S.E.” value ([10]; 10 mg/kg p.o.) was 211.0 ± 26.0 μg/20g, the “Dye leakage (P.S.B.) mean ± S.E.” value ([10]; 20 mg/kg p.o.) was 166.8 ± 13.8 μg/20g and the Inhibition ([10]; 5 mg/kg p.o.) was 18.3%. It also gave an Inhibition ([10]; 10 mg/kg p.o.) of 34.2%, an Inhibition ([10]; 20 mg/kg p.o.) of 48.0% and an ED30 [10] of 8.5 mg/kg.
